Results taken from the supplement of paper PMC10307832.

Key:
Assay in all cases: relative viability (nuclei count vs DMSO), 5 days (fraction); higher = more cells survive
[1] = test system: BEN
How it was run: (§1)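 Medians of duplicate plates are given as relative viability. That measure is the nuclei count in treated wells divided by the count in vehicle wells. Counts were taken on 4× images of lung cancer cell lines in 1536-well plates, 5 days after pin-tool dosing the day after seeding with one drug alone or a fixed anchor-drug dose plus five library-drug doses (not always all listed) in √10 steps.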

[2] = test system: ChaGo-K-1
How it was run: as §1

[3] = test system: EKVX
How it was run: as §1

[4] = test system: HCC-827
How it was run: as §1

[5] = test system: HOP-62
How it was run: as §1

[6] = test system: LCLC-103H
How it was run: as §1

[7] = test system: LK-2
How it was run: as §1

[8] = test system: LOU-NH91
How it was run: as §1

[9] = test system: LXF-289
How it was run: as §1

[10] = test system: NCI-H1355
How it was run: as §1

[11] = test system: NCI-H1437
How it was run: as §1

[12] = test system: NCI-H1666
How it was run: as §1

[13] = test system: NCI-H1944
How it was run: as §1

[14] = test system: NCI-H1993
How it was run: as §1

[15] = test system: NCI-H2126
How it was run: as §1

[16] = test system: NCI-H2170
How it was run: as §1

[17] = test system: NCI-H441
How it was run: as §1

[18] = test system: NCI-H647
How it was run: as §1

[19] = test system: NCI-H661
How it was run: as §1

[20] = test system: NCI-H727
How it was run: as §1

[21] = test system: PC-14
How it was run: as §1

[22] = test system: RERF-LC-KJ
How it was run: as §1

[23] = test system: SK-MES-1
How it was run: as §1

CCNC(=O)c1noc(-c2cc(C(C)C)c(O)cc2O)c1-c1ccc(CN2CCOCC2)cc1 [Luminespib] + Cc1cc(Nc2cc(N3CCN(C)CC3)nc(Sc3ccc(NC(=O)C4CC4)cc3)n2)n[nH]1 [Tozasertib] (partner 0.1 µM) showed a relative viability ([1]; first compound 0.002 µM) of 0.554, a relative viability ([1]; first compound 0.006325 µM) of 0.458 and a relative viability ([1]; first compound 0.02 µM) of 0.475. For the same compound, the relative viability ([1]; first compound 0.06325 µM) was 0.37, the relative viability ([1]; first compound 0.2 µM) was 0.383 and the relative viability ([2]; first compound 0.002 µM) was 0.23. For the same compound, the relative viability ([2]; first compound 0.006325 µM) was 0.228, the relative viability ([2]; first compound 0.02 µM) was 0.159 and the relative viability ([2]; first compound 0.06325 µM) was 0.186. For the same compound, the relative viability ([2]; first compound 0.2 µM) was 0.201, the relative viability ([3]; first compound 0.002 µM) was 0.436 and the relative viability ([3]; first compound 0.006325 µM) was 0.389. It also gave a relative viability ([3]; first compound 0.06325 µM) of 0.346, a relative viability ([3]; first compound 0.2 µM) of 0.165 and a relative viability ([4]; first compound 0.002 µM) of 0.425. The relative viability ([4]; first compound 0.006325 µM) was 0.465, the relative viability ([4]; first compound 0.02 µM) was 0.398 and the relative viability ([4]; first compound 0.06325 µM) was 0.41. The relative viability ([4]; first compound 0.2 µM) was 0.193, the relative viability ([5]; first compound 0.002 µM) was 0.363 and the relative viability ([5]; first compound 0.006325 µM) was 0.352. For the same compound, the relative viability ([5]; first compound 0.02 µM) was 0.403, the relative viability ([5]; first compound 0.06325 µM) was 0.389 and the relative viability ([5]; first compound 0.2 µM) was 0.232. It also gave a relative viability ([6]; first compound 0.002 µM) of 0.47, a relative viability ([6]; first compound 0.006325 µM) of 0.455 and a relative viability ([6]; first compound 0.02 µM) of 0.44. It also gave a relative viability ([6]; first compound 0.06325 µM) of 0.497, a relative viability ([6]; first compound 0.2 µM) of 0.308 and a relative viability ([7]; first compound 0.002 µM) of 0.184. It also gave a relative viability ([7]; first compound 0.006325 µM) of 0.194, a relative viability ([7]; first compound 0.02 µM) of 0.154 and a relative viability ([7]; first compound 0.06325 µM) of 0.208. The relative viability ([7]; first compound 0.2 µM) was 0.182, the relative viability ([8]; first compound 0.002 µM) was 0.685 and the relative viability ([8]; first compound 0.006325 µM) was 0.664. For the same compound, the relative viability ([8]; first compound 0.02 µM) was 0.428, the relative viability ([8]; first compound 0.06325 µM) was 0.265 and the relative viability ([8]; first compound 0.2 µM) was 0.282. The relative viability ([9]; first compound 0.002 µM) was 0.225, the relative viability ([9]; first compound 0.006325 µM) was 0.216 and the relative viability ([9]; first compound 0.02 µM) was 0.222. For the same compound, the relative viability ([9]; first compound 0.06325 µM) was 0.141, the relative viability ([9]; first compound 0.2 µM) was 0.0935 and the relative viability ([10]; first compound 0.002 µM) was 0.518. It also gave a relative viability ([10]; first compound 0.006325 µM) of 0.577, a relative viability ([10]; first compound 0.02 µM) of 0.421 and a relative viability ([10]; first compound 0.06325 µM) of 0.618. For the same compound, the relative viability ([10]; first compound 0.2 µM) was 0.226, the relative viability ([11]; first compound 0.002 µM) was 0.385 and the relative viability ([11]; first compound 0.006325 µM) was 0.359. The relative viability ([11]; first compound 0.02 µM) was 0.497, the relative viability ([11]; first compound 0.06325 µM) was 0.508 and the relative viability ([11]; first compound 0.2 µM) was 0.238. It also gave a relative viability ([12]; first compound 0.002 µM) of 0.64, a relative viability ([12]; first compound 0.006325 µM) of 0.583 and a relative viability ([12]; first compound 0.02 µM) of 0.601. For the same compound, the relative viability ([12]; first compound 0.06325 µM) was 0.732, the relative viability ([12]; first compound 0.2 µM) was 0.538 and the relative viability ([13]; first compound 0.002 µM) was 0.253. It also gave a relative viability ([13]; first compound 0.006325 µM) of 0.256, a relative viability ([13]; first compound 0.02 µM) of 0.22 and a relative viability ([13]; first compound 0.06325 µM) of 0.197. The relative viability ([13]; first compound 0.2 µM) was 0.22, the relative viability ([14]; first compound 0.002 µM) was 0.539 and the relative viability ([14]; first compound 0.006325 µM) was 0.6. The relative viability ([14]; first compound 0.02 µM) was 0.533, the relative viability ([14]; first compound 0.06325 µM) was 0.5 and the relative viability ([14]; first compound 0.2 µM) was 0.437. The relative viability ([15]; first compound 0.002 µM) was 0.844, the relative viability ([15]; first compound 0.006325 µM) was 0.879 and the relative viability ([15]; first compound 0.02 µM) was 0.661. The relative viability ([15]; first compound 0.06325 µM) was 0.5, the relative viability ([15]; first compound 0.2 µM) was 0.264 and the relative viability ([16]; first compound 0.002 µM) was 0.72. The relative viability ([16]; first compound 0.006325 µM) was 0.737, the relative viability ([16]; first compound 0.02 µM) was 0.398 and the relative viability ([16]; first compound 0.06325 µM) was 0.299. For the same compound, the relative viability ([16]; first compound 0.2 µM) was 0.158, the relative viability ([17]; first compound 0.002 µM) was 0.671 and the relative viability ([17]; first compound 0.006325 µM) was 0.507. It also gave a relative viability ([17]; first compound 0.02 µM) of 0.647, a relative viability ([17]; first compound 0.06325 µM) of 0.186 and a relative viability ([17]; first compound 0.2 µM) of 0.148. The relative viability ([18]; first compound 0.002 µM) was 0.299, the relative viability ([18]; first compound 0.006325 µM) was 0.274 and the relative viability ([18]; first compound 0.02 µM) was 0.431. For the same compound, the relative viability ([18]; first compound 0.06325 µM) was 0.0669, the relative viability ([18]; first compound 0.2 µM) was 0.0766 and the relative viability ([19]; first compound 0.002 µM) was 0.352. The relative viability ([19]; first compound 0.006325 µM) was 0.358, the relative viability ([19]; first compound 0.02 µM) was 0.348 and the relative viability ([19]; first compound 0.06325 µM) was 0.357. For the same compound, the relative viability ([19]; first compound 0.2 µM) was 0.292, the relative viability ([20]; first compound 0.002 µM) was 0.61 and the relative viability ([20]; first compound 0.006325 µM) was 0.614. For the same compound, the relative viability ([20]; first compound 0.02 µM) was 0.505, the relative viability ([20]; first compound 0.06325 µM) was 0.314 and the relative viability ([20]; first compound 0.2 µM) was 0.291. For the same compound, the relative viability ([21]; first compound 0.002 µM) was 0.567, the relative viability ([21]; first compound 0.006325 µM) was 0.547 and the relative viability ([21]; first compound 0.02 µM) was 0.326. For the same compound, the relative viability ([21]; first compound 0.06325 µM) was 0.0498, the relative viability ([21]; first compound 0.2 µM) was 0.0697 and the relative viability ([22]; first compound 0.002 µM) was 0.558. The relative viability ([22]; first compound 0.006325 µM) was 0.501, the relative viability ([22]; first compound 0.02 µM) was 0.518 and the relative viability ([22]; first compound 0.06325 µM) was 0.211. The relative viability ([22]; first compound 0.2 µM) was 0.208, the relative viability ([23]; first compound 0.002 µM) was 0.822 and the relative viability ([23]; first compound 0.006325 µM) was 0.849. For the same compound, the relative viability ([23]; first compound 0.02 µM) was 1.01, the relative viability ([23]; first compound 0.06325 µM) was 0.144 and the relative viability ([23]; first compound 0.2 µM) was 0.159.
